# Measured values taken from patent US8592456B2 (4SC Discovery GmbH, priority 2011, dated 2013).
# Like-named read-outs stand apart in the source and are kept apart here.
# Tested on: PBMC (T cell proliferation)
# Assay: T cell proliferation assay, PHA-stimulated human PBMC (BrdU ELISA)
# Format: cell-based
# How it was run: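 Healthy-donor human PBMC, Ficoll-isolated, seeded 1×10^5 cells/well in RPMI1640 with 10% dialyzed FCS, stimulated with 2 μg/ml PHA alongside test compound. Proliferation read after 48 hours by BrdU ELISA.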
# [1] = human PBMC, 2 μg/ml PHA, 48 hours, BrdU, read-out: D: IC50 (Tcell proliferation)
# [2] = PHA-stimulated human PBMC, 48 hours, BrdU, column D, activity classes 1-4, read-out: IC50 (Tcell proliferation)
Structure (SMILES),IC50 [1],other results
"CCOC(=O)c1c(-c2c(F)cccc2Cl)noc1-c1cnn(-c2ccc([N+](=O)[O-])cc2)c1C(F)(F)F [Example B-94, ethyl 3-(2-chloro-6-fluorophenyl)-5-(1-(4-nitrophenyl)-5-(trifluoromethyl)-1H-pyrazol-4-yl)isoxazole-4-carboxylate]",1000 to 10000 nM,–
"NC(=S)c1c(-c2c(F)cccc2Cl)noc1-c1cnn(-c2ccccc2F)c1C(F)(F)F [Example B-102, 3-(2-chloro-6-fluorophenyl)-5-(1-(2-fluorophenyl)-5-(trifluoromethyl)-1H-pyrazol-4-yl)isoxazole-4-carbothioamide]",100 to 1000 nM,–
"Cc1nnc(-c2c(-c3c(F)cccc3Cl)noc2-c2cnn(-c3ccncc3)c2C(F)(F)F)s1 [IB-22, 3-(2-chloro-6-fluorophenyl)-4-(5-methyl-1,3,4-thiadiazol-2-yl)-5-(1-(pyridin-4-yl)-S-(trifluoromethyl)-1H-pyrazol-4-yl)isoxazole]",–,IC50 [2]: 100 to 1000 nM
"CNC(=S)c1c(-c2c(F)cccc2Cl)noc1-c1cnn(-c2cccc(F)c2)c1C(F)(F)F [Example 122, 3-(2-chloro-6-fluorophenyl)-5-(1-(3-fluorophenyl)-5-(trifluoromethyl)-1H-pyrazol-4-yl)-N-methylisoxazole-4-carbothioamide]",100 to 1000 nM,–
"COC(=O)c1c(-c2c(F)cccc2Cl)noc1-c1cnn(C2CCS(=O)(=O)C2)c1C(F)(F)F (stereo not shown) [Example 103, methyl 3-(2-chloro-6-fluorophenyl)-5-(1-(3-hydrazinyltetrahydrothiophene 1,1-dioxide)-5-(trifluoromethyl)-1H-pyrazol-4-yl)isoxazole-4-carboxylate]",100 to 1000 nM,–
"COC(=O)c1c(-c2c(F)cccc2Cl)noc1-c1cnn(-c2ccc(Cl)cc2Cl)c1C(F)(F)F [Example 7, methyl 3-(2-chloro-6-fluorophenyl)-5-(1-(2,4-dichlorophenyl)-5-(trifluoromethyl)-1H-pyrazol-4-yl)isoxazole-4-carboxylate]",1000 to 10000 nM,–
"Cc1nnc(-c2c(-c3c(F)cccc3Cl)noc2-c2cnn(-c3ccccc3F)c2C(F)(F)F)o1 [Example I-11, 2-(3-(2-chloro-6-fluorophenyl)-5-(1-(2-fluorophenyl)-5-(trifluoromethyl)-1H-pyrazol-4-yl)isoxazol-4-yl)-5-methyl-1,3,4-oxadiazole]",–,IC50 [2]: 100 to 1000 nM
"CCOC(=O)c1c(-c2c(Cl)cncc2Cl)noc1-c1cnn(-c2cccc(NC(C)=O)c2)c1C(F)(F)F [Example B-11, ethyl 5-(1-(3-acetamidophenyl)-5-(trifluoromethyl)-1H-pyrazol-4-yl)-3-(3,5-dichloropyridin-4-yl)isoxazole-4-carboxylate]",100 to 1000 nM,–
"CCOC(=O)c1c(-c2c(F)cccc2Cl)noc1-c1cnn(-c2cccc(C(N)=O)c2)c1C(F)(F)F [Example B-100, ethyl 5-(1-(3-carbamoylphenyl)-5-(trifluoromethyl)-1H-pyrazol-4-yl)-3-(2-chloro-6-fluorophenyl)isoxazole-4-carboxylate]",1000 to 10000 nM,–
"COC(=O)c1c(-c2c(F)cccc2Cl)noc1-c1cnn(CC(F)(F)F)c1C(F)(F)F [Example 65, methyl 3-(2-chloro-6-fluorophenyl)-5-(1-(2,2,2-trifluoroethyl)-5-(trifluoromethyl)-1H-pyrazol-4-yl)isoxazole-4-carboxylate]",10 to 100 nM,–
"CNC(=O)c1c(-c2c(F)cccc2Cl)noc1-c1cnn(-c2cccc(F)c2)c1C(F)(F)F [Example 62, 3-(2-chloro-6-fluorophenyl)-5-(1-(3-fluorophenyl)-5-(trifluoromethyl)-1H-pyrazol-4-yl)-N-methylisoxazole-4-carboxamide]",10 to 100 nM,–
"CNC(=O)c1c(-c2c(F)cccc2Cl)noc1-c1cnn(-c2ccccc2)c1C(F)(F)F [Example 59, 3-(2-chloro-6-fluorophenyl)-N-methyl-5-(1-phenyl-5-(trifluoromethyl)-1H-pyrazol-4-yl)isoxazole-4-carboxamide]",100 to 1000 nM,–
"Cc1nnc(-c2c(-c3c(F)cccc3Cl)noc2-c2cnn(-c3ccccn3)c2C(F)(F)F)s1 [IB-27, 3-(2-chloro-6-fluorophenyl)-4-(5-methyl-1,3,4-thiadiazol-2-yl)-5-(1-(pyridin-2-yl)-5-(trifluoromethyl)-1H-pyrazol-4-yl)isoxazole]",–,IC50 [2]: 10 to 100 nM
"NC(=S)c1c(-c2c(F)cccc2Cl)noc1-c1cnn(-c2cccc(Cl)c2)c1C(F)(F)F [Example 125, 3-(2-chloro-6-fluorophenyl)-5-(1-(3-chlorophenyl)-5-(trifluoromethyl)-1H-pyrazol-4-yl)isoxazole-4-carbothioamide]",1000 to 10000 nM,–
"CCOC(=O)c1c(-c2ccncc2F)noc1-c1cnn(-c2cccc(NC(C)=O)c2)c1C(F)(F)F [Example B-6, ethyl 5-(1-(3-acetamidophenyl)-5-(trifluoromethyl)-1H-pyrazol-4-yl)-3-(3-fluoropyridin-4-yl)isoxazole-4-carboxylate]",100 to 1000 nM,–
"CNC(=O)c1c(-c2c(F)cccc2Cl)noc1-c1cnn(-c2cccc(Cl)c2)c1C(F)(F)F [Example 32, 3-(2-chloro-6-fluorophenyl)-5-(1-(3-chlorophenyl)-5-(trifluoromethyl)-1H-pyrazol-4-yl)-N-methylisoxazole-4-carboxamide]",10 to 100 nM,–

Structure (SMILES),IC50 [1],other results
"Fc1ccccc1-n1ncc(-c2onc(-c3c(F)cccc3Cl)c2-c2nnco2)c1C(F)(F)F [Example I-15, 2-(3-(2-chloro-6-fluorophenyl)-5-(1-(2-fluorophenyl)-5-(trifluoromethyl)-1H-pyrazol-4-yl)isoxazol-4-yl)-1,3,4-oxadiazole]",–,IC50 [2]: 100 to 1000 nM
"NS(=O)(=O)c1cccc(-n2ncc(-c3onc(-c4c(F)cccc4Cl)c3-c3nnco3)c2C(F)(F)F)c1 [IB-17, 3-(4-(3-(2-chloro-6-fluorophenyl)-4-(1,3,4-oxadiazol-2-yl)isoxazol-5-yl)-5-(trifluoromethyl)-1H-pyrazol-1-yl)benzenesulfonamide]",–,IC50 [2]: 1000 to 10000 nM
"COC(=O)Nc1c(-c2c(F)cccc2Cl)noc1-c1cnn(-c2cccc(F)c2)c1C(F)(F)F [Example 138, methyl 3-(2-chloro-6-fluorophenyl)-5-[1-(3-fluorophenyl)-5-(trifluoromethyl)-1H-pyrazol-4-yl]isoxazol-4-ylcarbamate]",100 to 1000 nM,–
"CCOC(=O)c1c(-c2c(Cl)cncc2Cl)noc1-c1cnn(-c2ccccc2Cl)c1C(F)(F)F [Example B-16, ethyl 5-(1-(2-chlorophenyl)-5-(trifluoromethyl)-1H-pyrazol-4-yl)-3-(3,5-dichloropyridin-4-yl)isoxazole-4-carboxylate]",1000 to 10000 nM,–
"CC(C)Cn1ncc(-c2onc(-c3c(F)cccc3Cl)c2-c2nnn[nH]2)c1C(F)(F)F [Example I-1, 3-(2-chloro-6-fluorophenyl)-5-(1-isobutyl-5-(trifluoromethyl)-1H-pyrazol-4-yl)-4-(1H-tetrazol-5-yl)isoxazole]",–,IC50 [2]: 1000 to 10000 nM
"CNC(=O)c1c(-c2c(F)cccc2Cl)noc1-c1cnn(-c2ccccc2F)c1C(F)(F)F [Example 19, 3-(2-chloro-6-fluorophenyl)-5-(1-(2-fluorophenyl)-5-(trifluoromethyl)-1H-pyrazol-4-yl)-N-methylisoxazole-4-carboxamide]",1000 to 10000 nM,–
"O=C(c1c(-c2c(F)cccc2Cl)noc1-c1cnn(-c2cccc(Cl)c2)c1C(F)(F)F)N1CCCO1 [Example 132, (3-(2-chloro-6-fluorophenyl)-5-(1-(3-chlorophenyl)-5-(trifluoromethyl)-1H-pyrazol-4-yl)isoxazol-4-yl)(isoxazolidin-2-yl)methanone]",10 to 100 nM,–
"Fc1cccc(-n2ncc(-c3onc(-c4c(F)cccc4Cl)c3-c3nnco3)c2C(F)(F)F)c1 [Example I-7, 2-(3-(2-chloro-6-fluorophenyl)-5-(1-(3-fluorophenyl)-5-(trifluoromethyl)-1H-pyrazol-4-yl)isoxazol-4-yl)-1,3,4-oxadiazole]",–,IC50 [2]: 10 to 100 nM
"COC(=O)c1c(-c2c(F)cccc2Cl)noc1-c1cnn(-c2ccccc2)c1C(F)(F)F [Example 48, methyl 3-(2-chloro-6-fluorophenyl)-5-(1-phenyl-5-(trifluomethyl)1H-pyrazol-4-yl)isoxazole-4-carboxylate]",10 to 100 nM,–
"COC(=O)c1c(-c2c(Cl)cccc2Cl)noc1-c1cnn(-c2cccc(Cl)c2)c1C(F)(F)F [Example B-75, methyl 5-(1-(3-chlorophenyl)-5-(trifluoromethyl)-1H-pyrazol-4-yl)-3-(2,6-dichlorophenyl)isoxazole-4-carboxylate]",< 10 nM,–
"O=C(c1c(-c2c(F)cccc2Cl)noc1-c1cnn(-c2cccc(F)c2)c1C(F)(F)F)N1CCCO1 [Example 118, (3-(2-chloro-6-fluorophenyl)-5-(1-(3-fluorophenyl)-5-(trifluoromethyl)-1H-pyrazol-4-yl)isoxazol-4-yl)(isoxazolidin-2-yl)methanone]",10 to 100 nM,–
"CN1CCN(C(=O)c2c(-c3c(F)cccc3Cl)noc2-c2cnn(-c3cccc(Cl)c3)c2C(F)(F)F)CC1 [Example B-34, (3-(2-chloro-6-fluorophenyl)-5-(1-(3-chlorophenyl)-5-(trifluoromethyl)-1H-pyrazol-4-yl)-isoxazol-4-yl)(4-methylpiperazin-1-yl)methanone]",100 to 1000 nM,–
"CNC(=S)c1c(-c2c(F)cccc2Cl)noc1-c1cnn(-c2cccc(Cl)c2)c1C(F)(F)F [Example 72, 3-(2-chloro-6-fluorophenyl)-5-(1-(3-chlorophenyl)-5-(trifluoromethyl)-1H-pyrazol-4-yl)-N-methylisoxazole-4-carbothioamide]",100 to 1000 nM,–
"CNC(=O)c1c(-c2c(F)cccc2Cl)noc1-c1cnn(-c2cccnc2)c1C(F)(F)F [Example B-55, 3-(2-chloro-6-fluorophenyl)-N-methyl-5-(1-(pyridin-3-yl)-5-(trifluoromethyl)-1H-pyrazol-4-yl)isoxazole-4-carboxamide]",1000 to 10000 nM,–
"CCOC(=O)c1c(-c2c(F)cccc2Cl)noc1-c1cnn(-c2ccccc2N)c1C(F)(F)F [Example B-98, ethyl 5-(1-(2-aminophenyl)-5-(trifluoromethyl)-1H-pyrazol-4-yl)-3-(2-chloro-6-fluorophenyl)isoxazole-4-carboxylate]",–,"IC50 (Homo sapiens, 48 h, read-out: D: IC50 (Tcell proliferation)): 10 to 100 nM"
